This is an account of results in patent US9707200B2, “Metabolism-improving agent comprising rare fatty acid” (KYOTO UNIVERSITY, priority 2012, dated 2017).

Assay [1] concerns HepG2 cells. The assay can be described thus: Intracellular triacylglycerol accumulation by LXR agonist. In kind it is cell-based, human. To be noted: 10 nM T0901317 + 60 μM fatty acid, 24 hr. The procedure:
(§1) HepG2 cells (2.0×10^5 cells/mL) were cultured in DMEM medium containing 10% FES for 24 hr, and the medium was exchanged with 0.1% BSA-containing DMEM medium containing 10 nM LXR agonist T0901317 (Cayman Chemicals) and 60 μM various fatty acid. After culture for 24 hr, the cells were recovered, and total RNA was extracted using Sepasol reagent (Nacalai Tesque). After DNase treatment, reverse transcription was performed using SuperScriptII (Invitrogen) to give a cDNA solution. Using SYBR Green Mix (Bio-Rad, Richmond, Calif.) and gene-specific primer (Table 1), real-time PCR was performed as follows.
1. Reaction at 96° C., 15 min, 2. reaction at 96° C., 15 sec, 3. reaction at 60° C. for 30 sec, 4. measurement of fluorescence, 5. 2-4 were repeated 40 times, 6. the melting curve was measured from 65° C. to 95° C. at 0.4° C. intervals. As the internal standard, 18S rRNA was used. The genes involved in the fatty acid synthesis as measured were Sterol regulatory element binding protein-1c (SREBP-1c), Stearoyl coenzyme A desaturase-1 (SCD-1), Fatty acid synthase (FAS), and Acetyl CoA carboxylase-1 and -2 (ACC-1, 2). As for the amount of accumulated intracellular TG, the lipid was extracted with chloroform-methanol, and quantified by triglyceride-′E Test Wako (Wako Pure Chemical Industries, Ltd.).

The target in another assay is T1, LXR (Homo sapiens, UniProt Q13133).
T1 construct: expressed in transfected cells; host or cells: HepG2 (human liver cancer-derived)
T1 sequence (Q13133 1-447): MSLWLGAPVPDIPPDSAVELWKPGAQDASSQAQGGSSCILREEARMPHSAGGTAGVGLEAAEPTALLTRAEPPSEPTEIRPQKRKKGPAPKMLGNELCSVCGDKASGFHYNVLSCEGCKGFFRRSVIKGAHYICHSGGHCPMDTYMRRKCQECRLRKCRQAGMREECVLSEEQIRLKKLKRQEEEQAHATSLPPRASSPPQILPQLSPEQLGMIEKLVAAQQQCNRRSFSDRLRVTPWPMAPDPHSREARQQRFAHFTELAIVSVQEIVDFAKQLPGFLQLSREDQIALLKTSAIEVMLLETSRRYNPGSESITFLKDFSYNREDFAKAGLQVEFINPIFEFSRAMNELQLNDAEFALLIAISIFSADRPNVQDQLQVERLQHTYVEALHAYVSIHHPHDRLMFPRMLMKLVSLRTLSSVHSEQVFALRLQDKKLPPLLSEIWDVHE
Briefly: Antagonizing action on LXR by luciferase assay. In kind it is cell-based. To be noted: for antagonizing action on LXR (relative luciferase activity): HepG2 cells, fatty acid + T0901317, 24 hr; for lipid synthesis suppressive action by the antagonizing action on LXR: overall finding from SREBP-1c, SREBP-1, SCD-1, FAS, ACC1, 2, triacylglycerol and LXR luciferase measurements in HepG2 cells. The procedure:
(§2) In addition, the protein expression level of immature and mature SREBP-1c was measured. Cells treated as mentioned above were dispersed in buffer A (250 mM sucrose, 10 mM HEPES-KOH, 10 mM KCl, 1.5 mM MgCl2, 1 mM EDTA-Na, 1 mM EGTA-Na, pH 7.6) containing a protease inhibitor, passed 20 times through a 23 gauge injection needle, and centrifuged (1,000×g, 4° C., 5 min) to separate into supernatant 1 and precipitate 1. The precipitate 1 was re-dissolved in buffer B (20 mM HEPES-KOH, 0.42 M NaCl, 2.5% glycerol, 1.5 mM MgCl2, 1 mM EDTA-Na, 1 mM EGTA-Na, pH 7.6), and centrifuged (10^5×g, 4° C., 15 min). The obtained supernatant 2 was used as a nuclear fraction (including mature form). The supernatant 1 was further centrifuged (10^5×g, 4° C., 15 min), and the obtained precipitate 2 was dissolved in cell lysate (10 mM Tris-HCl, 100 mM NaCl, 1% SDS, 1 mM EDTA-Na, 1 mM EGTA-Na) and used as a membrane fraction (including immature form). Using these as samples, measurement was performed by Western blot method using anti-SREBP-1 polyclonal antibody (Santa Cruz). Using Dual luciferase system (Promega), antagonizing action on LXR was evaluated by luciferase assay. p3xIR1-tk-Luc, pCMX-hLXRa, pRL-CMX were introduced into HepG2 cell. After culture in a 0.1% BSA-containing serum-free medium containing various fatty acids and T0901317 for 24 hr, the luciferase activity was measured.

The next assay deals with KKAy mouse. The assay can be described thus: Effect in obesity or diabetes model mouse fed high-fat diet with added fatty acid. In kind it is in vivo. To be noted: for body weight: 4 weeks; for body weight / blood glucose level: vs control group. The procedure:
(1) Using KKAy mouse as obesity or diabetes model mouse, the effect of KetoA, HYA was evaluated. KKAy mice (KKAy/TaJcl, male, 4-week-old, purchased from CLEA Japan, Inc. and individually bred) were preliminarily bred on a commercially available normal diet (ND) for 1 week, divided into 5 groups, and each group was bred on a high-fat diet (HFD) as a basic feed and given a non-addition feed (control group), or a feed added with different amounts of KetoA and HYA for 4 weeks. The KetoA, HYA-added feed was prepared by adding KetoA, HYA to HFD such that the amount to be added was 0.05% (w/w) (0.05% group) or 0.1% (w/w) (0.1% group).
(2) The profile of the body weight and blood glucose level of the KKAy mouse was measured. After the start of the test feed breeding, the oxygen consumption level was measured on day 16-19, an oral glucose loading test was performed on day 24, and the rectal temperature was measured on day 26. The next day of the completion of experimental breeding, the KKAy mouse was dissected, and the organ weight and plasma neutral fat level were measured.

For assay [2], the system named is HepG2 cells. The assay can be described thus: Immature and mature SREBP-1 protein expression induced by LXR agonist, Western blot. In kind it is cell-based, human. To be noted: 10 nM T0901317 + 60 μM fatty acid, 24 hr; for immature SREBP-1 expression induced by LXR agonist: membrane fraction; for mature SREBP-1 expression induced by LXR agonist: nuclear fraction. On the procedure:
as §1, §2

As to `CCCCC/C=C\CC(O)CCCCCCCCC(=O)O` (stereo not drawn) [HYA, 10-hydroxy-cis-12-octadecenoic acid], in the assay with HepG2 cells [1], the “suppression of intracellular triacylglycerol increase by LXR agonist” value is given as “significantly suppressed”. At LXR, the “antagonizing action on LXR (relative luciferase activity)” value is recorded as “significantly suppress the action of T0901317” and the “lipid synthesis suppressive action by the antagonizing action on LXR” value is given as “strong lipid synthesis suppressive action”. In addition, in the assay on KKAy mouse (HFD with 0.05% (w/w) added), the body weight result is “significant suppression of body weight increase”. The blood glucose level entry with KKAy mouse (added-feed group, amount not specified) is recorded as “tendency toward suppression of blood glucose level increase”. Moreover, in the assay on HepG2 cells [2], the “immature SREBP-1 expression induced by LXR agonist” value is given as “strongly suppressed” and the “mature SREBP-1 expression induced by LXR agonist” value was “strongly suppressed”.
As to `CCCCC/C=C\CC(=O)CCCCCCCCC(=O)O` [KetoA, 10-oxo-cis-12-octadecenoic acid], the “suppression of intracellular triacylglycerol increase by LXR agonist” value with HepG2 cells [1] is given as “significantly suppressed”. Further, on LXR, the “antagonizing action on LXR (relative luciferase activity)” value is listed as “significantly suppress the action of T0901317” and the “lipid synthesis suppressive action by the antagonizing action on LXR” value is listed as “strong lipid synthesis suppressive action”. In addition, the blood glucose level entry in the assay with KKAy mouse (0.05% group, at 4 weeks of test diet) is “tendency toward suppression of blood glucose increase”. Besides, in the assay on KKAy mouse (0.1% group, after 4 weeks), the “intraperitoneal white fat weight” value was “significant decrease” and the “plasma neutral fat level” value is given as “significant decrease”. The blood glucose level entry in the assay on KKAy mouse (0.1% group, at 4 weeks of test diet) is listed as “stronger, significant hypoglycemic action”. In the assay with KKAy mouse (HFD with 0.05% (w/w) added), the body weight result is “body weight increase suppression tendency”. Further, in the assay with KKAy mouse (HFD with 0.1% (w/w) added), the body weight entry was “significant suppression of body weight increase”. For the same compound, in the assay on KKAy mouse (day 16-19, added-feed group vs control group), the oxygen consumption level entry is on record as “increase in the oxygen consumption level”. In the assay with KKAy mouse (day 26, added-feed group vs control group), the rectal temperature result is on record as “increase in the rectal temperature”. In addition, in the assay on HepG2 cells [2], the “immature SREBP-1 expression induced by LXR agonist” value was “strongly suppressed” and the “mature SREBP-1 expression induced by LXR agonist” value is listed as “strongly suppressed”.
